Results taken from US20110288176A1, “[…] ACID-CONTAINING COMPOSITION FOR PREVENTION OR TREATMENT OF […]-RELATED DISEASES AND METHOD FOR PREVENTION OR TREATMENT OF […]-RELATED DISEASES USING THE SAME” (priority 2008, published 2011).

Target: T1, Transglutaminase 2 (Cavia cutleri, UniProt P08587)
T1 construct: purchased Sigma-Aldrich T5398
T1 sequence (P08587 1-690): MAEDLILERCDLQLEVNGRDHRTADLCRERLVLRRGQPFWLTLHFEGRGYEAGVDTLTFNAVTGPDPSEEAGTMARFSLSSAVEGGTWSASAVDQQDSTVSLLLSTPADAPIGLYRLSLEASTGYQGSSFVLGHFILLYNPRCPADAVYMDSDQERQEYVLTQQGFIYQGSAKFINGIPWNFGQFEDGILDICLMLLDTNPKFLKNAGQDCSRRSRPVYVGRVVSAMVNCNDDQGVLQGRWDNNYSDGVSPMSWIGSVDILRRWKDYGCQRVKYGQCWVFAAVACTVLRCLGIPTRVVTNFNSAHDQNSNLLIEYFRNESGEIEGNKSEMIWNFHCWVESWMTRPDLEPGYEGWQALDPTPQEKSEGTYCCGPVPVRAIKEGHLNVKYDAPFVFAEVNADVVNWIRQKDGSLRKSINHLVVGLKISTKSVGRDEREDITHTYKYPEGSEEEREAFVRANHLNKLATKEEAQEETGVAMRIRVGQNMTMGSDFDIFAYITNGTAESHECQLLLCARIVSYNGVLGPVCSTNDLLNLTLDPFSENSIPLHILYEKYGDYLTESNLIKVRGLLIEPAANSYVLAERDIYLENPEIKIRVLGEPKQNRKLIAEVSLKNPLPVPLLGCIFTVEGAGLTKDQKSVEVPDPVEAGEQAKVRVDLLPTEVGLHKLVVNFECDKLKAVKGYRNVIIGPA
Assay: In vitro assay for inhibition of transglutaminase activity ([1,4-14C]putrescine incorporation into succinylated casein)
Type: biochemical
Settings: for activity of transglutaminase, Mean: mean of three assays
Experimental: Succinylated casein was purchased from Calbiochem (Cat. No. 573464), and 1 g of the powder was dissolved in 50 ml of a reaction buffer solution containing 5 mM DTT (0.1 M Tris-acetate (pH 8.0), 10 mM CaCl2, 0.15 M NaCl, 1.0 mM EDTA). This solution was stored in a deep freezer for further use. [1,4-^14C] Putrescine dihydrochloride was purchased from GE Healthcare (Cat. No. CFA301), and the stock solution was diluted with distilled water to yield a radiological dose of 5 μCi/ml. Transglutaminase 2 was purchased from Sigma-Aldrich (Cat. No. T5398), and diluted with distilled water to yield a final concentration of 1 unit/ml.
450 μl of succinylated casein solution and 50 μl of [1,4-^14C] putrescine dihydrochloride solution were mixed together to prepare a substrate solution. […] 500 μl of the substrate solution β and 100 μl of sample solution were mixed well, and the mixture was incubated at 37° C. for 2 hrs, before termination with 4.5 ml of cold (4° C.) 7.5% TCA. The final solution was stored at 4° C. for 1 hr. The TCA-protein precipitates were filtered through a GF/glass fiber filter, washed with 25 ml of cold 5% TCA, and dried.

[1] = 5 μM ethacrynic acid, relative to DMSO control (=1.0000)
[2] = 10 μM ethacrynic acid, relative to DMSO control (=1.0000)
[3] = 25 μM ethacrynic acid, relative to DMSO control (=1.0000)
[4] = 50 μM ethacrynic acid, relative to DMSO control (=1.0000)

In the case of `C=C(CC)C(=O)c1ccc(OCC(=O)O)c(Cl)c1Cl` [ethacrynic acid, 2-[2,3-dichloro-4-(2-methylidenebuanoyl)phenoxy]acetic acid], the “activity of transglutaminase, Mean” value [1] is reported as 0.4796, the “activity of transglutaminase, Assay 1” value (5 μM ethacrynic acid, radioactivity of cross-linked protein relative to DMSO control (=1.0000)) is reported as 0.5667 and the “activity of transglutaminase, Assay 2” value [1] is reported as 0.4572. The “activity of transglutaminase, Assay 3” value [1] was 0.4148, the “activity of transglutaminase, Mean” value [2] was 0.3752 and the “activity of transglutaminase, Assay 1” value [2] was 0.4319. The “activity of transglutaminase, Assay 2” value [2] was 0.3654, the “activity of transglutaminase, Assay 3” value [2] was 0.3281 and the “activity of transglutaminase, Mean” value [3] was 0.1935. The “activity of transglutaminase, Assay 1” value [3] was 0.2337, the “activity of transglutaminase, Assay 2” value [3] was 0.1812 and the “activity of transglutaminase, Assay 3” value [3] was 0.1656. For the same compound, the “activity of transglutaminase, Mean” value [4] was 0.0736, the “activity of transglutaminase, Assay 1” value [4] was 0.0763 and the “activity of transglutaminase, Assay 2” value [4] was 0.0799. The “activity of transglutaminase, Assay 3” value [4] was 0.0645 and the “inhibition of transglutaminase activity (in words)” value (FIG. 1) was “inhibited in an ethacrynic acid concentration-dependent manner”.
